These results are taken from patent publication US20050169984A1, “Pharmaceutical hard capsule containing inorganic substance” (DAIICHI SUNTORY PHARMA CO., LTD., priority 2004, published 2005).

Data set [1] can be described thus: Generation of Compound 2 on sealed non-contact storage of faropenem daloxate with hard gelatin capsule (HPLC peak area ratio). It is filed as physicochemical. The source says: (drifting moisture) for 7 days, and observed for the change. 1, generation quantity of Compound 2 has increased and hard gelatin capsule has insolubilized after 3 days of preservation. From the result, it is confirmed that insolubilization of hard gelatin capsule is caused by low molecular, gaseous aldehyde-like substance generated from degradation of faropenem daloxate.
FIG. 2 is showing the testing condition of observation for change while faropenem daloxate is kept with hard gelatin capsule without any contact with the capsule in sealed glass container at 60° C. (drifting moisture) for 7 days.

The conditions of data set [2]: background statement; cited from earlier work.

Where only a bound is given, the exact number is not on record here.

As for `Cc1oc(=O)oc1COC(=O)C1=C([C@H]2CCCO2)S[C@@H]2[C@@H]([C@@H](C)O)C(=O)N12` [faropenem daloxate, (5-methyl-2-oxo-1,3-dioxolene-4-yl)methyl (5R,6S)-6-[(R)-1-hydroxyethyl]-7-oxo-3-[(R)-2-tetrahydrofuryl]-4-thia-1-azabicyclo[3.2.0]hept-2-ene-2-carboxylate], the “Generation quantity of Compound 2 (%)” value in data set [1] (60° C./drifting humidity/3 days) was found to be 0.02%; in data set [1] (60° C./drifting humidity/5 days), 0.04%; in data set [1] (60° C./drifting humidity/7 days) it was 0.07%. Besides, the oral absorbability in data set [2] is at least 70%.
